# Assay results taken from US20250179059A1 (The Regents of the University of California, priority 2021, published 2025).
# pIC50: −log10 of the molar value. Where two headings read alike, the source gives them in different places.
# Key:
# [1] = test system: human SKM-1 acute myeloid leukemia cells; experiment: SKM-1 antiproliferation cell-based assay (ATPlite); settings: Homo sapiens
# Summary of the method: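 Log-phase cells in RPMI 1640/15% FBS were seeded at 34722 cells/mL and exposed for 4 days to nine-concentration DMSO serial dilutions in triplicate. Viability was read as ATP luminescence (ATPlite 1step), and IC50 values came from variable-slope non-linear regression.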
# [2] = molecular target: T1, human BRD4 bromodomain II (Homo sapiens, UniProt O60885); experiment: Bromodomain binding assay (AlphaScreen), BRD4 BDII
# T1 construct: human BRD4 bromodomain II [based on Genbank NM_058243, residues 349-460]; host or cells: E. coli
# Summary of the method: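 Compounds (10-point, 3-fold series) were preincubated 30 min at room temperature with E. coli-expressed N-terminal His6-tagged BRD4 BDII (residues 349-460) or BDI (residues 44-170) in 50 mM HEPES pH 7.5, 100 mM NaCl, 0.05% CHAPS, 0.1% BSA, 1% DMSO. Displacement of biotinylated tetra-acetylated H4 1-21 peptide was read by AlphaScreen; IC50 from curve fitting.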
# [3] = SKM-1, SKM-1 antiproliferation assay
# [4] = BRD4 BDII AlphaScreen assay, read-out: BRD4 BD2 IC50
# [5] = SKM-1, 96 h, SKM-1 antiproliferation assay, 4 days, Table C2
# [6] = AlphaScreen assay, Table C2, read-out: BRD4 BDII IC50
Structure (SMILES),"GI50 [1, 3] [nM]","pIC50 [2, 4]","GI50 [1, 5] [nM]","pIC50 [2, 6]"
"Cc1cc(-c2ccc(-n3ccn(C)c3=O)c(Cl)c2)c(O)c(-c2cnc(N)c(N3CCC4(CCN4C(C)C)C3)c2)n1 (centres unmarked) [Example 975, 1-(4-(6′-amino-3-hydroxy-5′-(1-isopropyl-1,6-diazaspiro[3.4]octan-6-yl)-6-methyl-[2,3′-bipyridin]-4-yl)-2-chlorophenyl)-3-methyl-1H-imidazol-2(3H)-one]",0.3 to 30,8.00 to 9.00,,
"C#CCN1CCN(c2cc(-c3cc(F)cc(-c4ccc(-n5ccn(C)c5=O)c(Cl)c4)c3O)ccn2)CC1 [Example 669, 1-(3-chloro-5′-fluoro-2′-hydroxy-3′-(2-(4-(prop-2-yn-1-yl)piperazin-1-yl)pyridin-4-yl)-[1,1′-biphenyl]-4-yl)-3-methyl-1H-imidazol-2(3H)-one]",,,30 to 300,9.00 to 11.00
"CN1CCN(c2ccc(-c3cc(F)cc(-c4cnc(N5CCCC5)c(N5CCNCC5)c4)c3O)cc2Cl)C1=O [Example 397, 1-(3-chloro-5′-fluoro-2′-hydroxy-3′-(5-(piperazin-1-yl)-6-(pyrrolidin-1-yl)pyridin-3-yl)-[1,1′-biphenyl]-4-yl)-3-methylimidazolidin-2-one]",,,30 to 300,8.00 to 9.00
"COc1ncc(-c2nc(C)cc(-c3ccc(-n4ccn(C)c4=O)c(Cl)c3)c2O)cc1N1CCC2(CCN2C(C)C)C1 (centres unmarked) [Example 977, 1-(2-chloro-4-(3-hydroxy-5′-(1-isopropyl-1,6-diazaspiro[3.4]octan-6-yl)-6′-methoxy-6-methyl-[2,3′-bipyridin]-4-yl)phenyl)-3-methyl-1H-imidazol-2(3H)-one]",0.3 to 30,9.00 to 11.00,,
"CCc1ncc(-c2cc(F)cc(-c3ccc(N4CCN(C)C4=O)c(Cl)c3)c2O)cc1N1CCNCC1 [Example 382, 1-(3-chloro-3′-(6-ethyl-5-(piperazin-1-yl)pyridin-3-yl)-5′-fluoro-2′-hydroxy-[1,1′-biphenyl]-4-yl)-3-methylimidazolidin-2-one]",,,30 to 300,8.00 to 9.00
"Cn1ccn(-c2ccc(-c3cc(F)cc(-c4cc(N5CC[C@H](N)C5)c5nc[nH]c5c4)c3O)cc2Cl)c1=O [Example 533, (S)-1-(3′-(4-(3-aminopyrrolidin-1-yl)-1H-benzo[d]imidazol-6-yl)-3-chloro-5′-fluoro-2′-hydroxy-[1,1′-biphenyl]-4-yl)-3-methyl-1H-imidazol-2(3H)-one]",,,0.3 to 30,8.00 to 9.00
"Cn1ccn(-c2ccc(-c3cc(Cl)cc(-c4ccnc(N5CC[C@H](N)C5)c4)c3O)cc2Cl)c1=O [Example 539, (S)-1-(3′-(2-(3-aminopyrrolidin-1-yl)pyridin-4-yl)-3,5′-dichloro-2′-hydroxy-[1,1′-biphenyl]-4-yl)-3-methyl-1H-imidazol-2(3H)-one]",,,0.3 to 30,8.00 to 9.00
"CN1CCN(c2ccc(-c3cc(F)cc(-c4ccnc(N5CCNCC5)c4)c3N)cc2Cl)C1=O [Example 406, 1-(2′-amino-3-chloro-5′-fluoro-3′-(2-(piperazin-1-yl)pyridin-4-yl)-[1,1′-biphenyl]-4-yl)-3-methylimidazolidin-2-one]",,,30 to 300,7.00 to 8.00
"Cn1ccn(-c2ccc(-c3cc(F)cc(-c4ccnc(N5CC6CCNC6C5)c4)c3O)cc2Cl)c1=O (centres unmarked) [Example 655, 1-(3-chloro-5′-fluoro-3′-(2-(hexahydropyrrolo[3,4-b]pyrrol-5(1H)-yl)pyridin-4-yl)-2′-hydroxy-[1,1′-biphenyl]-4-yl)-3-methyl-1H-imidazol-2(3H)-one]",,,0.3 to 30,9.00 to 11.00
"Cc1cc(-c2cc(F)cc(-c3ccnc(N4CCNCC4)c3)c2O)ccc1N1CCN(C)C1=O [Example 380, 1-(5′-fluoro-2′-hydroxy-3-methyl-3′-(2-(piperazin-1-yl)pyridin-4-yl)-[1,1′-biphenyl]-4-yl)-3-methylimidazolidin-2-one]",,,30 to 300,8.00 to 9.00
"CC(=O)NC(C)(C)C#Cc1cccc(-c2cc(F)cc(-c3ccc(-n4ccn(C)c4=O)c(Cl)c3)c2O)c1 [Example 795, N-(4-(3″-chloro-5′-fluoro-2′-hydroxy-4″-(3-methyl-2-oxo-2,3-dihydro-1H-imidazol-1-yl)-[1,1′:3′,1″-terphenyl]-3-yl)-2-methylbut-3-yn-2-yl)acetamide]",,,300 to 3000,< 7.00
COc1c(-c2cccc(N3CCN(C(C)(C)C)CC3)c2)cc(F)cc1-c1ccc(-n2ccn(C)c2=O)c(Cl)c1 [Example 859],30 to 300,7.00 to 8.00,,
"C[C@@H]1CN(c2cncc(-c3cc(Cl)cc(-c4ccc(-n5ccn(C)c5=O)c(Cl)c4)c3O)c2)CCN1 [Example 529, (R)-1-(3,5′-dichloro-2′-hydroxy-3′-(5-(3-methylpiperazin-1-yl)pyridin-3-yl)-[1,1′-biphenyl]-4-yl)-3-methyl-1H-imidazol-2(3H)-one]",,,0.3 to 30,8.00 to 9.00
"Cn1ccn(-c2ccc(-c3cc(F)cc(-c4cc(N5C[C@@H](N)C6(CC6)C5)c5cn[nH]c5c4)c3O)cc2Cl)c1=O [Example 598, (S)-1-(3′-(4-(7-amino-5-azaspiro[2.4]heptan-5-yl)-1H-indazol-6-yl)-3-chloro-5′-fluoro-2′-hydroxy-[1,1′-biphenyl]-4-yl)-3-methyl-1H-imidazol-2(3H)-one]",,,0.3 to 30,8.00 to 9.00
"Cn1ccn(-c2ccc(-c3cc(F)cc(-c4ccnc(N5CCC6(CCCN6)C5)c4)c3O)cc2Cl)c1=O (centres unmarked) [Example 636, 1-(3′-(2-(1,7-diazaspiro[4.4]nonan-7-yl)pyridin-4-yl)-3-chloro-5′-fluoro-2′-hydroxy-[1,1′-biphenyl]-4-yl)-3-methyl-1H-imidazol-2(3H)-one]",,,0.3 to 30,9.00 to 11.00
"CC(C)N1CCN(c2cc(-c3cc(F)cc(-c4ccc(-n5ccn(C)c5=O)c(Cl)c4)c3O)ccc2C(F)(F)F)CC1 [Example 811, 1-(3-chloro-5′-fluoro-2′-hydroxy-3″-(4-isopropylpiperazin-1-yl)-4″-(trifluoromethyl)-[1,1′:3′,1″-terphenyl]-4-yl)-3-methyl-1H-imidazol-2(3H)-one]",,,30 to 300,8.00 to 9.00
"CC(C)N1CCC2CN(c3cc(-c4cc(F)cc(-c5ccc(-n6ccn(C)c6=O)c(Cl)c5)c4O)ccn3)CC21 (centres unmarked) [Example 727, 1-(3-chloro-5′-fluoro-2′-hydroxy-3′-(2-(1-isopropylhexahydropyrrolo[3,4-b]pyrrol-5(1H)-yl)pyridin-4-yl)-[1,1′-biphenyl]-4-yl)-3-methyl-1H-imidazol-2(3H)-one]",,,0.3 to 30,9.00 to 11.00
"CN1CCN(c2ccc(-c3cc(F)cc(-c4cnc(OC5CCC(O)CC5)c(N5CCNCC5)c4)c3O)cc2Cl)C1=O (centres unmarked) [Example 421, 1-(3-chloro-5′-fluoro-2′-hydroxy-3′-(6-((4-hydroxycyclohexyl)oxy)-5-(piperazin-1-yl)pyridin-3-yl)-[1,1′-biphenyl]-4-yl)-3-methylimidazolidin-2-one]",,,30 to 300,9.00 to 11.00
"CC(=O)Nc1ccc(-c2cc(C)nc(-c3cccc(N4CCN(C(C)(C)C)CC4)c3)c2O)cc1Cl [Example 1007, N-(4-(2-(3-(4-(tert-butyl)piperazin-1-yl)phenyl)-3-hydroxy-6-methylpyridin-4-yl)-2-chlorophenyl)acetamide]",0.3 to 30,8.00 to 9.00,,
"CN1CCCC12CCN(c1cc(-c3cc(F)cc(-c4ccc(-n5ccn(C)c5=O)c(Cl)c4)c3O)ccn1)C2 (centres unmarked) [Example 637, 1-(3-chloro-5′-fluoro-2′-hydroxy-3′-(2-(1-]",,,0.3 to 30,9.00 to 11.00
"Cc1cc(-c2ccc(-n3ccn(C)c3=O)c(Cl)c2)c(O)c(-c2cnc(C)c(N3CCC4(CCN4C(C)C)C3)c2)n1 (centres unmarked) [Example 974, 1-(2-chloro-4-(3-hydroxy-5′-(1-isopropyl-1,6-diazaspiro[3.4]octan-6-yl)-6,6′-dimethyl-[2,3′-bipyridin]-4-yl)phenyl)-3-methyl-1H-imidazol-2(3H)-one]",0.3 to 30,9.00 to 11.00,,
"COc1ncc(-c2cc(F)cc(-c3ccc(-n4ccn(C)c4=O)c(Cl)c3)c2O)cc1N1CC[C@@]2(CCCN2C(C)C)C1 [Example 957, (S)-1-(3-chloro-5′-fluoro-2′-hydroxy-3′-(5-(1-isopropyl-1,7-diazaspiro[4.4]nonan-7-yl)-6-methoxypyridin-3-yl)-[1,1′-biphenyl]-4-yl)-3-methyl-1,3-dihydro-2H-imidazol-2-one]",0.3 to 30,9.00 to 11.00,,
"Cn1ccn(-c2ccc(-c3cc(F)cc(-c4cccc(C#CC(C)(C)N)c4)c3O)cc2Cl)c1=O [Example 771, 1-(3″-(3-amino-3-methylbut-1-yn-1-yl)-3-chloro-5′-fluoro-2′-hydroxy-[1,1′:3′,1″-terphenyl]-4-yl)-3-methyl-1H-imidazol-2(3H)-one]",,,30 to 300,8.00 to 9.00
"CN(C)[C@H]1CCN(c2cncc(-c3cc(F)cc(-c4ccc(-n5ccn(C)c5=O)c(Cl)c4)c3O)c2)C1 [Example 475, (S)-1-(3-chloro-3′-(5-(3-(dimethylamino)pyrrolidin-1-yl)pyridin-3-yl)-5′-fluoro-2′-hydroxy-[1,1′-biphenyl]-4-yl)-3-methyl-1H-imidazol-2(3H)-one]",,,0.3 to 30,9.00 to 11.00
"CN1CCN(c2ccc(-c3cc(F)cc(-c4ccnc(N5CCC(N)CC5)c4)c3O)cc2Cl)C1=O [Example 350, 1-(3′-(2-(4-aminopiperidin-1-yl)pyridin-4-yl)-3-chloro-5′-fluoro-2′-hydroxy-[1,1′-biphenyl]-4-yl)-3-methylimidazolidin-2-one]",,,30 to 300,7.00 to 8.00
